Data from patent US9409891B2, “Solid forms of an antiviral compound” (Gilead Sciences, Inc., priority 2012, dated 2016).
Values after ≈ are worked out from the molar mass of the structure shown.

What was measured:
[1] = First stable form screening (amorphous Compound I in 19 solvents/mixtures at ambient conditions); assay type: physicochemical; settings: for 2-Week solids / 24 h solids / solubility: amorphous start, ambient; for solubility: thermodynamic from solid
Description: The first stable form screening was conducted using 19 solvents/mixtures at ambient conditions. The starting material was amorphous. Anti-solvents, either water or heptane, were used to precipitate the solids.
Form I is a hydrate form obtained from ACN/water 50:50 mixture. Form II is an anhydrous form obtained from ACN. […] Solids in water and heptane were amorphous. Other samples remained as solutions.
It appears to be a solvated form. […] Solids in water and heptane remained amorphous. Other samples remained as solution.

[2] = Desolvation screening (vacuum oven); assay type: physicochemical; settings: heated to about 110~120° C. in a vacuum oven
Description: Another method of generating anhydrous forms is desolvation. In this study, the solvates and hydrates of Compound I were heated to about 110˜120° C. in a vacuum oven to desolvate.

[3] = dried at 70° C.
[4] = Stable form competition study in ACN; assay type: physicochemical; settings: ACN mother liquor
Description: To further verify the stability of Form II, competitive crystallization was conducted by adding Forms I through V into a high concentration solution of amorphous Compound I in ACN. […] The mother liquor obtained, which was saturated in terms of Form II, was used in another test in which other forms (Forms I, III, IV and V) were added.

[5] = Follow-up stable form screening (Form II stirred in solvents at about 22° C.); assay type: physicochemical; settings: about 22° C., Form II start
Description: In the follow-up stable form screening experiments, the starting materials were Form II. The solids were stirring in the solvents list below at about 22° C. in 2 ml vials.

[6] = 2 Me-THF, init. conc. 77.4 mg/mL
[7] = Acetone, init. conc. 79.6 mg/mL
[8] = Heptane, init. conc. 12.7 mg/mL
[9] = Toluene, init. conc. 16.2 mg/mL

Compound: 5-(3,3-dimethylbutyn-1-yl)-3-[(cis-4-hydroxy-4-{[(3S)-tetrahydrofuran-3-yloxy]methyl}cyclohexyl){[(1R)-4-methylcyclohex-3-en-1-yl]carbonyl}amino]thiophene-2-carboxylic acid hydrate and/or solvate [Form III]
- Form conversion in slurry ([1]; EtOH/water slurry, after 2 weeks of stirring): converted to Form IV
- Form conversion upon drying ([1]; solids from EtOH/water, dried): converted to Form IV

Compound: 5-(3,3-dimethylbutyn-1-yl)-3-[(cis-4-hydroxy-4-{[(3S)-tetrahydrofuran-3-yloxy]methyl}cyclohexyl){[(1R)-4-methylcyclohex-3-en-1-yl]carbonyl}amino]thiophene-2-carboxylic acid solvate [Form V]
- Final Form after desolvation [2]: Amorphous

Compound: CC1=CC[C@H](C(=O)N(c2cc(C#CC(C)(C)C)sc2C(=O)O)[C@H]2CC[C@](O)(CO[C@H]3CCOC3)CC2)CC1.O (relative stereo) [Form I, 5-(3,3-dimethylbutyn-1-yl)-3-[(cis-4-hydroxy-4-{[(3S)-tetrahydrofuran-3-yloxy]methyl}cyclohexyl){[(1R)-4-methylcyclohex-3-en-1-yl]carbonyl}amino]thiophene-2-carboxylic acid hydrate]
- Solid state after drying (XRPD) [3]: partially became amorphous
- Behaviour of solids added to mother liquor saturated in Form II [4]: dissolved quickly
- solubility ([5]; Water, value for Form I): 0.25 mg/mL
- Final Form after desolvation [2]: Amorphous

Compound: CC1=CC[C@H](C(=O)N(c2cc(C#CC(C)(C)C)sc2C(=O)O)C2CCC(O)(CO[C@H]3CCOC3)CC2)CC1.CCO (relative stereo) [Form IX, 5-(3,3-dimethylbutyn-1-yl)-3-[(cis-4-hydroxy-4-{[(3S)-tetrahydrofuran-3-yloxy]methyl}cyclohexyl){[(1R)-4-methylcyclohex-3-en-1-yl]carbonyl}amino]thiophene-2-carboxylic acid ethanol solvate]
- solubility ([5]; EtOH, value for Form IX): 283 mg/mL

Compound: CC(C)O.CC1=CC[C@H](C(=O)N(c2cc(C#CC(C)(C)C)sc2C(=O)O)C2CCC(O)(CO[C@H]3CCOC3)CC2)CC1 (relative stereo) [Form VII, 5-(3,3-dimethylbutyn-1-yl)-3-[(cis-4-hydroxy-4-{[(3S)-tetrahydrofuran-3-yloxy]methyl}cyclohexyl){[(1R)-4-methylcyclohex-3-en-1-yl]carbonyl}amino]thiophene-2-carboxylic acid isopropyl alcohol solvate]
- solubility ([5]; IPA, value for Form VII): 266 mg/mL
- Final Form after desolvation [2]: Amorphous

Compound: CC1=CC[C@H](C(=O)N(c2cc(C#CC(C)(C)C)sc2C(=O)O)C2CCC(O)(CO[C@H]3CCOC3)CC2)CC1.O (relative stereo) [Form VIII, 5-(3,3-dimethylbutyn-1-yl)-3-[(cis-4-hydroxy-4-{[(3S)-tetrahydrofuran-3-yloxy]methyl}cyclohexyl){[(1R)-4-methylcyclohex-3-en-1-yl]carbonyl}amino]thiophene-2-carboxylic acid monohydrate]
- Final Form after desolvation [2]: VIII

Compound: CC1=CC[C@H](C(=O)N(c2cc(C#CC(C)(C)C)sc2C(=O)O)[C@H]2CC[C@](O)(CO[C@H]3CCOC3)CC2)CC1.CCC(C)=O (relative stereo) [Form X, 5-(3,3-dimethylbutyn-1-yl)-3-[(cis-4-hydroxy-4-{[(3S)-tetrahydrofuran-3-yloxy]methyl}cyclohexyl){[(1R)-4-methylcyclohex-3-en-1-yl]carbonyl}amino]thiophene-2-carboxylic acid methyl ethyl ketone]
- solubility ([5]; MEK, value for Form X): 127 mg/mL

Compound: CC1=CC[C@H](C(=O)N(c2cc(C#CC(C)(C)C)sc2C(=O)O)[C@H]2CC[C@](O)(CO[C@H]3CCOC3)CC2)CC1 [Compound I, 5-(3,3-dimethylbutyn-1-yl)-3-[(cis-4-hydroxy-4-{[(3S)-tetrahydrofuran-3-yloxy]methyl}cyclohexyl){[(1R)-4-methylcyclohex-3-en-1-yl]carbonyl}amino]thiophene-2-carboxylic acid]
- 2-Week solids [1, 6]: solution
- 24 h solids [1, 6]: solution
- 2-Week solids [1, 7]: solution
- 24 h solids [1, 7]: solution
- 2-Week solids ([1]; EtOAc, init. conc. 49.4 mg/mL): solution
- 24 h solids ([1]; EtOAc, init. conc. 49.4 mg/mL): solution
- 2-Week solids ([1]; EtOH, init. conc. 76 mg/mL): solution
- 24 h solids ([1]; EtOH, init. conc. 76 mg/mL): solution
- 2-Week solids [1, 8]: amorphous
- 24 h solids [1, 8]: amorphous
- 24 h solids ([1]; IPA/water, init. conc. 47.7 mg/mL): solution
- 2-Week solids ([1]; IPA, init. conc. 95.4 mg/mL): solution
- 24 h solids ([1]; IPA, init. conc. 95.4 mg/mL): solution
- 2-Week solids ([1]; IPAc, init. conc. 39.6 mg/mL): solution
- 24 h solids ([1]; IPAc, init. conc. 39.6 mg/mL): solution
- 2-Week solids ([1]; MEK, init. conc. 65.6 mg/mL): solution
- 24 h solids ([1]; MEK, init. conc. 65.6 mg/mL): solution
- 2-Week solids ([1]; MIBK, init. conc. 60.2 mg/mL): solution
- 24 h solids ([1]; MIBK, init. conc. 60.2 mg/mL): solution
- 24 h solids ([1]; MTBE, init. conc. >45 mg/mL): solution
- 2-Week solids ([1]; MeCl2, init. conc. 36 mg/mL): solution
- 24 h solids ([1]; MeCl2, init. conc. 36 mg/mL): solution
- 2-Week solids ([1]; MeOH, init. conc. 87.4 mg/mL): solution
- 24 h solids ([1]; MeOH, init. conc. 87.4 mg/mL): solution
- 2-Week solids ([1]; THF, init. conc. 53.4 mg/mL): solution
- 24 h solids ([1]; THF, init. conc. 53.4 mg/mL): solution
- 2-Week solids [1, 9]: solution
- 24 h solids [1, 9]: solution
- 2-Week solids ([1]; Water, init. conc. 11 mg/mL): amorphous
- 24 h solids ([1]; Water, init. conc. 11 mg/mL): amorphous
- solubility ([1]; aqueous with cosolvent or surfactant or cyclodextrin, ACN/water (50:50), solids I): 0.23 mg/mL (≈ 0.423 mM)
- solubility ([1]; aqueous with cosolvent or surfactant or cyclodextrin, EtOH/water, solids III then IV): 14.5 mg/mL (≈ 26.7 mM)
- solubility ([1]; aqueous with cosolvent or surfactant or cyclodextrin, IPA/water, 2-week solids V): 1.78 mg/mL (≈ 3.27 mM)
- solubility ([1]; organic solvent or mixture, 2 Me-THF, remained solution): > 77.4 mg/mL
- solubility ([1]; organic solvent or mixture, ACN, solids II): 13 mg/mL (≈ 23.9 mM)
- solubility ([1]; organic solvent or mixture, Acetone, remained solution): > 79.6 mg/mL
- solubility ([1]; organic solvent or mixture, EtOAc, remained solution): > 49.4 mg/mL
- solubility ([1]; organic solvent or mixture, EtOH, remained solution): > 76 mg/mL
- solubility ([1]; organic solvent or mixture, IPA, remained solution): > 95.4 mg/mL
- solubility ([1]; organic solvent or mixture, IPAc, remained solution): > 39.6 mg/mL
- solubility ([1]; organic solvent or mixture, MEK, remained solution): > 65.6 mg/mL
- solubility ([1]; organic solvent or mixture, MIBK, remained solution): > 60.2 mg/mL
- solubility ([1]; organic solvent or mixture, MTBE, 2-week solids V): 316 mg/mL (≈ 581 mM)
- solubility ([1]; organic solvent or mixture, MeCl2, remained solution): > 36 mg/mL
- solubility ([1]; organic solvent or mixture, MeOH, remained solution): > 87.4 mg/mL
- solubility ([1]; organic solvent or mixture, THF, remained solution): > 53.4 mg/mL
- solubility ([1]; organic solvent or mixture, Toluene, remained solution): > 16.2 mg/mL
